Data published in patent US5356916A, “1,2,4-oxadiazole derivatives having monoamine oxidase B enzyme-inhibitory activity” (Wakamoto Pharmaceutical Co., Ltd., priority 1991, dated 1994).

What was measured:
Parkinson's disease = details: United States and Europe; cited from earlier work
MAO-A = target: T1, MAO-A (Rattus norvegicus, UniProt P21396); assay: In vitro inhibition of monoamine oxidase A (oxygen electrode, rat liver mitochondria, substrate serotonin); type: biochemical; details: rat liver mitochondria, 37° C., preincubated, substrate serotonin (5-HT); read-out: IC50 MAO-A
T1 construct: mitochondria prepared from the liver of rats; from tissue; host or cells: rat liver mitochondria
T1 sequence (P21396 1-526): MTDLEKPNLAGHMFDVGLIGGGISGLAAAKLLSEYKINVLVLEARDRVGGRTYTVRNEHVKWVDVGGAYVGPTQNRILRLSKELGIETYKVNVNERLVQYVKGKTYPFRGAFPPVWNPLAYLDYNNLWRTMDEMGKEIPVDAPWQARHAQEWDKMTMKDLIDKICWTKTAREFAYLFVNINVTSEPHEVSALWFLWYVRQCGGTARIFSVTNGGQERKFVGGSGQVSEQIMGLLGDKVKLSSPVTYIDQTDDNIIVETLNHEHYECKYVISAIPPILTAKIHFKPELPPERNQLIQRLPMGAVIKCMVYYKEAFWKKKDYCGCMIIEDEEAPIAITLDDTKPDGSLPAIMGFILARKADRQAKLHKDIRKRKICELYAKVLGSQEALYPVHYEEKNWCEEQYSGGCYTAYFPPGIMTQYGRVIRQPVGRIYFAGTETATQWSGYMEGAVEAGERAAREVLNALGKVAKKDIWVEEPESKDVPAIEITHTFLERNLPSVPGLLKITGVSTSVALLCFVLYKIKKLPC
Procedure: (§1) The MAO-inhibitory activity of the compounds of the present invention was determined according to an MAO-inhibitory activity determining method using the oxygen electrode disclosed in K. F. Tipton et al., Biochem. J., 1968,108, pp. 95-99.
(§2) A potassium phosphate buffer solution of mitochondria prepared from the liver of rats was preincubated at 37° C. with or without a compound of the present invention and then a substrate was added to the mixture to thus initiate the reaction at that temperature while the dissolved oxygen-consuming reaction due to MAO activity in the reaction solution was monitored by the oxygen electrode. In this respect, the substrates used were serotonin (5-HT) for the MAO-A activity determination and benzylamine (BA) for the MAO-B activity determination. The MAO-inhibitory activity was evaluated in terms of an IC5.sbsb.0 value which is the concentration of a compound tested required for reducing the rate of oxygen-consuming reaction performed in the presence of the compound to 50% of that of the reaction performed in the absence of the compound.

MAO-B = target: T2, MAO-B (Rattus norvegicus, UniProt P19643); assay: In vitro inhibition of monoamine oxidase B (oxygen electrode, rat liver mitochondria, substrate benzylamine); type: biochemical; details: for IC50: rat liver mitochondria, 37° C., preincubated, substrate benzylamine (BA), read-out: IC50 MAO-B; for MAO-A/MAO-B: ratio of IC50 values MAO-A/MAO-B
T2 construct: mitochondria prepared from the liver of rats; from tissue; host or cells: rat liver mitochondria
T2 sequence (P19643 1-520): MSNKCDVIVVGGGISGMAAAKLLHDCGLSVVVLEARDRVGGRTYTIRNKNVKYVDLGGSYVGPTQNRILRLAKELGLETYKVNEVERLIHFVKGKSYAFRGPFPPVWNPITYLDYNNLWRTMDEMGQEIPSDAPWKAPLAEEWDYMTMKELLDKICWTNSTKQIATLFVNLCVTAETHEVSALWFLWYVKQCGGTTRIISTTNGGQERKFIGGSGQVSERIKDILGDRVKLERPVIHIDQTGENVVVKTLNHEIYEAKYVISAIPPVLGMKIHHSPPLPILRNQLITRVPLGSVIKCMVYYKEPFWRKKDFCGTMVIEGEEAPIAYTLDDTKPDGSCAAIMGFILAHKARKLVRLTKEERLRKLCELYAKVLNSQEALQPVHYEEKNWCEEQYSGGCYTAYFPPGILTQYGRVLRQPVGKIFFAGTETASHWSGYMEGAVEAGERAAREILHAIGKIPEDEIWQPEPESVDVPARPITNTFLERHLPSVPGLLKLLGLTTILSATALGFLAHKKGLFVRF
Procedure: as §1, §2

SMILES: C#CCN(C)C(C)Cc1ccccc1 (racemic) [d,l-Deprenil]
- clinical effectiveness in Parkinson's disease (in words) (Parkinson's disease): effectiveness of this compound has clinically been proved

SMILES: CCc1nc(-c2ccc(OCCCN3CCCCC3)cc2)no1 [Example 12, 3-[4-(3-piperidinopropoxy)phenyl]5-ethyl-1,2,4-oxadiazole]
- IC50 (MAO-A): 100 µM
- IC50 (MAO-B): 100 µM
- MAO-A/MAO-B (MAO-B): 1

SMILES: CCCOc1ccc(-c2noc(CC)n2)cc1 [Example 16, 3-(4-propoxy)phenyl-5-ethyl-1,2,4-oxadiazole]
- IC50 (MAO-A): 48 µM
- IC50 (MAO-B): 10 µM
- MAO-A/MAO-B (MAO-B): 4.8
